Laboratory results taken from ChEMBL document CHEMBL5214948, “Boronic Acid: A Novel Pharmacophore Targeting Src Homology 2 (SH2) Domain of STAT3” (J Med Chem, 2022).
pIC50: −log10 of the molar value. The source made the active and inactive calls. The calls are words filed in the database; no cut-off is given here.

Legend:
[1] = tested on: MGC-803; test: Antitumor activity against human MGC-803 cells xenografted in BALB/c nude mouse assessed as reduction in Ki67 expression at 15 mg/kg, ip measured every day for 20 days by immunohistochemical analysis; format: functional, organism-based; settings: time 20.0 day
[2] = tested on: MGC-803; test: Antitumor activity against human MGC-803 cells xenografted in BALB/c nude mouse assessed as reduction in tumor cells at 5 mg/kg, ip measured every day for 20 days by immunohistochemical analysis; format: functional, organism-based; settings: time 20.0 day
[3] = target: T1, Signal transducer and activator of transcription 3 (Homo sapiens, UniProt P40763); test: Inhibition of STAT3 phosphorylation at Tyr705 residue in human AGS cells incubated for 24 hrs by Western blot analysis; format: cell-based; settings: dose 1-3 µM, DDE = dose-dependent effect
Target sequence in this assay (P40763 whole entry): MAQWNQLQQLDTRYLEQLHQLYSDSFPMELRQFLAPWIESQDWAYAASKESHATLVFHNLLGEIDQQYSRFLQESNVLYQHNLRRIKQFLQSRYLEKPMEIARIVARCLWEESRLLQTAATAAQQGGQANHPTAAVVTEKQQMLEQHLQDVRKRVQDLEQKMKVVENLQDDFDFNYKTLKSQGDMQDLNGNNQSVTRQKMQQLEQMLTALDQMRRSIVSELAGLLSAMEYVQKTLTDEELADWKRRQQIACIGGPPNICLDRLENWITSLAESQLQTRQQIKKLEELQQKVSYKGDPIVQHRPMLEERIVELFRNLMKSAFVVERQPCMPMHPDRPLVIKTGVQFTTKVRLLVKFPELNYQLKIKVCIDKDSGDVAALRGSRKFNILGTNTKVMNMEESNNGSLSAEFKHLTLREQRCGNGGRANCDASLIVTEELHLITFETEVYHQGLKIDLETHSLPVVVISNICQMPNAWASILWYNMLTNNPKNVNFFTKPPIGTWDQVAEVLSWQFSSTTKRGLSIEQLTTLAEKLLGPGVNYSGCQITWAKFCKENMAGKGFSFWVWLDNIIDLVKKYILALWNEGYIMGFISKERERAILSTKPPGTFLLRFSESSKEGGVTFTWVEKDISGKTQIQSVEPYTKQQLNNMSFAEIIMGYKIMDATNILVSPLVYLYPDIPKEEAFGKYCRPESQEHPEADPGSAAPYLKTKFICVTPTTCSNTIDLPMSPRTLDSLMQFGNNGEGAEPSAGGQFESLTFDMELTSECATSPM

[4] = tested on: MGC-803; test: Antitumor activity against human MGC-803 cells xenografted in BALB/c nude mouse assessed as tumor growth inhibition at 15 mg/kg, ip measured every day for 20 days; format: functional; parameters: scale not given: the % may be the effect or the level left; settings: time 20 day
[5] = tested on: MGC-803; test: Antitumor activity against human MGC-803 cells xenografted in BALB/c nude mouse assessed as reduction in c-myc expression at 5 mg/kg, ip measured every day for 20 days by immunohistochemical analysis; format: functional, organism-based; settings: time 20.0 day
[6] = tested on: MGC-803; test: Inhibition of cell migration in human MGC-803 cells assessed as cell migration incubated for 24 hrs by microscopy based by scratch wound healing assay; format: functional; settings: dose 1-3 µM, DDE = dose-dependent effect
[7] = tested on: MGC-803; test: Antitumor activity against human MGC-803 cells xenografted in BALB/c nude mouse assessed as reduction in tumor progression at 15 mg/kg, ip measured every day for 20 days by immunohistochemical analysis; format: functional, organism-based; settings: time 20.0 day
[8] = Toxicity in nude BALB/c nude mouse xenografted with human MGC-803 cells assessed as morphological changes in spleen at 5 to 15 mg/kg, ip measured every day for 20 days by H and E staining based assay; format: organism-based; settings: in vivo, 480 h, time 20 day
[9] = tested on: MGC-803; test: Antiproliferative activity against human MGC-803 cells assessed as reduction in cell viability measured after 72 hrs by CCK-8 assay; format: functional, cell-based; settings: MGC-803, 72 h
[10] = tested on: MGC-803; test: Antitumor activity against human MGC-803 cells xenografted in BALB/c nude mouse assessed as reduction in Bcl-xL expression at 5 mg/kg, ip measured every day for 20 days by immunohistochemical analysis; format: functional, organism-based; settings: time 20.0 day
[11] = tested on: MGC-803; test: Antitumor activity against human MGC-803 cells xenografted in BALB/c nude mouse assessed as reduction in Bcl-xL expression at 15 mg/kg, ip measured every day for 20 days by immunohistochemical analysis; format: functional, organism-based; settings: time 20.0 day
[12] = tested on: MGC-803; test: Inhibition of colony formation in human MGC-803 cells at 1 uM incubated for 10 to 15 days by crystal violet staining based assay; format: functional, cell-based; settings: time 10-15 day
[13] = target: T1, Signal transducer and activator of transcription 3; test: Inhibition of STAT3 at Y705 residue phosphorylation at in human MGC-803 cells at 5 uM pretreated for 48 hrs followed by compound washout and measured after 72 hrs by immunoblotting analysis
Target sequence in this assay (P40763 whole entry, looked up): as the sequence (P40763 whole entry) above

[14] = tested on: MGC-803; test: Antitumor activity against human MGC-803 cells xenografted in BALB/c nude mouse assessed as reduction in c-myc expression at 15 mg/kg, ip measured every day for 20 days by immunohistochemical analysis; format: functional, organism-based; settings: time 20.0 day
[15] = target: T1, Signal transducer and activator of transcription 3; test: Inhibition of STAT3 transcriptional activity in human AGS cells assessed as downregulation of Bcl-xL protein expression at 1 to 3 uM incubated for 24 hrs by Western blot analysis; format: cell-based; settings: dose 1-3 µM
Target sequence in this assay (P40763 whole entry): as above

[16] = tested on: AGS; test: Antiproliferative activity against human AGS cells assessed as reduction in cell viability incubated for 72 hrs by CCK-8 assay; format: functional, cell-based
[17] = tested on: MGC-803; test: Induction of apoptosis in human MGC-803 cells at 5 uM incubated for 72 hrs by V-FITC/PI staining based flow cytometry assay; format: functional
[18] = target: T1, Signal transducer and activator of transcription 3; test: Inhibition of STAT3 transcriptional activity transfected in HEK293T cells at 3 to 5 uM incubated for 24 hrs by dual-ludferase reporter gene assay; format: cell-based; settings: dose 3-5 µM
Target sequence in this assay (P40763 whole entry): as above

[19] = tested on: AGS; test: Inhibition of cell migration in human AGS cells assessed as cell migration incubated for 24 hrs by microscopy based by scratch wound healing assay; format: functional; settings: dose 1-3 µM, DDE = dose-dependent effect
[20] = Antiproliferative activity against […] H9c2 cells assessed as reduction in cell viability incubated for 72 hrs by CCK-8 assay; format: toxicity, cell-based; settings: rat
[21] = Toxicity in BALB/c nude mouse xenografted with MGC-803 cells assessed as effect on body weight at 5 mg/kg, ip measured every day for 20 days; format: organism-based; settings: in vivo, 480 h, time 20 day
[22] = tested on: MGC-803; test: Antitumor activity against human MGC-803 cells xenografted in BALB/c nude mouse assessed as reduction in tumor cells at 15 mg/kg, ip measured every day for 20 days by immunohistochemical analysis; format: functional, organism-based; settings: time 20.0 day
[23] = target: T1, Signal transducer and activator of transcription 3; test: Inhibition of STAT3 transcriptional activity in human AGS cells assessed as downregulation of C-myc protein expression at 1 to 3 uM incubated for 24 hrs by Western blot analysis; format: cell-based; settings: dose 1-3 µM
Target sequence in this assay (P40763 whole entry): as above

[24] = tested on: MGC-803; test: Antitumor activity against human MGC-803 cells xenografted in BALB/c nude mouse assessed as tumor growth inhibition at 5 mg/kg, ip measured every day for 20 days; format: functional; parameters: scale not given: the % may be the effect or the level left; settings: time 20 day
[25] = target: T1, Signal transducer and activator of transcription 3; test: Inhibition of STAT3 transcriptional activity in human MGC-803 cells assessed as downregulation of Bcl-xL protein expression at 3 to 5 uM incubated for 24 hrs by Western blot analysis; format: cell-based; settings: dose 3-5 µM
Target sequence in this assay (P40763 whole entry): as above

[26] = target: T1, Signal transducer and activator of transcription 3; test: Binding affinity to full length wild type STAT3-SH2 domain (unknown origin) in human MGC-803 cells assessed as thermal stabilization of protein at 37 to 53 degreeC at 5 uM incubated for 3 hrs by cellular thermal shift assay; format: cell-based
Target sequence in this assay (P40763 whole entry): as above

[27] = Volume of distribution at steady state in ICR mouse at 5 mg/kg, iv measured upto 24 hrs by LC-MS/MS analysis; format: ADME, organism-based; settings: in vivo, read-out: Vdss

inhibition [3]: Dde | pIC50 [9]: 5.33 | inhibition [13]: Active | inhibition [15]: Active | pIC50 [16]: 5.81 | inhibition [18]: Active | inhibition [23]: Active | inhibition [25]: Active | Activity [26]: Active | Vd [27]: 18.7 L/kg
Compound: CN(CC(=O)N(Cc1ccc(C2CCCCC2)cc1)c1ccc(B(O)O)cc1)S(=O)(=O)c1c(F)c(F)c(F)c(F)c1F
Activity [1]: Active | Activity [2]: Active | Activity [4]: 79.13% | Activity [5]: Active | inhibition [6]: Dde | Activity [7]: Active | Activity [8]: Non-Toxic | Activity [10]: Active | Activity [11]: Active | inhibition [12]: Active | Activity [14]: Active | Activity [17]: 11.2% | inhibition [19]: Dde | IC50 at 72 h [20]: 9.05 µM | Activity [21]: Non-Toxic | Activity [22]: Active | Activity [24]: 65.14%
